From US4970226A, “Bis-indole imidazole compounds which are useful antitumor and antimicrobial agents” (Harbor Branch Oceanographic Institution, Inc., priority 1989, dated 1990)
Converted amounts (≈) assume the structure as drawn.

Key:
[1] = test system: P388 murine leukemia cells; assay: P388 in vitro antitumor screen (inhibition of P388 cell proliferation, MTT assay); type: cell-based; conditions: Mus musculus; for IC50: P388 cells, 48-hour incubation, MTT assay
Experimental: P388 murine leukemia cells, obtained from the National Cancer Institute, Bethesda, MD, were maintained at 37° C. in 5% CO2 in humidified air. Growth medium was Roswell Park Memorial Institute medium 1640 supplemented with 10% heat-inactivated horse serum. Stock cultures of P388 cells were grown in antibiotic-free growth medium and were subcultured (10^5 cells/ml, 25 ml cultures in T-25 plastic tissue culture flasks) every 2-3 days. […] An appropriate volume of the dilution was transferred to duplicate wells in a 96-well plate, evaporated to dryness, and 200 μl of growth medium-containing cells at a density of 1×10^5 cells/ml were added per well (final concentration of extract was 20 μg/ml). […] For daily quality control, each technician determines the IC50 of fluorouracil for inhibition of P388 cell proliferation. After 48-hour incubations, cell number was determined with the MTT assay (below), calculated as a percent of untreated cell growth, converted to percent inhibition, and reported to the chemist requesting the screen.
The initial determination of an IC50 value for inhibition of P388 cell proliferation with a crude, semipure, or pure sample was made by diluting the sample in methanol to the appropriate concentration, and then serial 1:1 dilutions were made in duplicate in a 96-well plate, such that the final concentrations in the assay were 20, 10, 5, 1.25, and 0.625 μg/ml. After solvent was evaporated to dryness, cells were added to each well as described above. After 48-hour incubations, cell numbers were determined with the MTT assay, converted to percent control, and plotted versus the log of the sample concentration. Curves were fitted by least-squares linear regression of logit-transformed data and the concentration of sample that inhibited cell proliferation by 50% was reported to the chemist requesting the screen. If the IC50 value was less than 0.625 μg/ml, additional serial dilutions were made and tested for activity.
MTT or 3-(4,5-dimethylthiazol-2-yl)-2,5-diphenyl-tetrazolium bromide is used in an established method (J. Immunol. Methods [1983] 65:55-63) to enumerate cells rather than "Coulter counting." For screening purposes, the correlation between percent inhibition determined for actual crude extracts with the Coulter counter and MTT method was very good (r=0.953, n=102 separate determinations of activity at 20 μg/ml), and no extract that was positive as determined by actual cell counts was lost using the MTT assay.

Candida albicans = assay: Antimicrobial MIC protocol, Candida albicans; type: cell-based, Candida albicans (ATCC strain 44506); conditions: lowest concentration which completely inhibited growth, 1000 cells/mL, 37° C. overnight
Experimental: (§1) Unless otherwise noted, all media were autoclaved at 121° C. for 15 minutes.
Candida albicans: C. albicans (ATCC strain 44506 was grown on Sabouraud dextrose agar to produce single colonies, one of which was used to inoculate Sabouraud dextrose broth. The broth was incubated at 37° C. with shaking at 200 rpm for 18 hours. The resultant culture was brought to 10% (v/v) glycerol, frozen at -80° C., and used as the inoculum for the anti-Candida assay.
Two-fold dilutions of the test compound were prepared in 50 μL volumes of a suitable solvent using 96-well microtiter plates. In a separate 96-well plate, 35 μL volumes of either Sabouraud dextrose broth or RPMI-1640 were placed in each well. The test compound (5 μL) was then transferred to the broth. An inoculum of C. albicans in the appropriate medium was added to give a cell density of 1000 cells/mL and a total volume of 50 μL. Plates were incubated at 37° C. overnight.

Bacillus subtilis = assay: Antimicrobial disc diffusion assay, Bacillus subtilis; type: cell-based, Bacillus subtilis (ATCC strain 6633); conditions: 20 μg/disc, 6.35 mm paper discs, overnight at 37° C., read-out: Antimicrobial Bacillus subtilis zone (diameter of the zone of growth inhibition)
Experimental: as §1
Standard spore stocks (ATCC strain 6633 were purchased from Difco (#0453-36-0).
B. subtilis was inoculated into Penassay medium (1 mL of stock per 200 mL agar), melted, and cooled to 45° C. Plates were poured as described above.
Paper discs (6.35 mm) were impregnated with the test substance and allowed to dry. They were then placed onto the surface of a test plate prepared as detailed above. Plates were incubated overnight at 37° C., after which time the zones of growh inhibition could be read. These were expressed as the diameter of the zone in millimeters. Standard drugs were used in all cases.

SMILES | IC50 [1] [µg/mL] | MIC (Candida albicans) [µg/mL] | inhibition at 0.2 µg/mL ([1]; P388, 48 h, read-out: inhibition of cell replication (positive control)) [%] | zone of inhibition at 20 µg/disc (Bacillus subtilis) [mm]
O=c1[nH]cc(F)c(=O)[nH]1 [fluorouracil, reference compound] | – | – | ~95 | –
Cn1c(-c2cn(C)c3ccccc23)c[n+](C)c1-c1cn(C)c2cc(Br)ccc12 [Tetramethylnortopsentin B] | 0.34 | > 50 | – | 12

Now from value to compound, other results behind:

IC50 [1] [µg/mL] | MIC (Candida albicans) [µg/mL] | SMILES | inhibition at 0.2 µg/mL ([1]; P388, 48 h, read-out: inhibition of cell replication (positive control)) [%] | zone of inhibition at 20 µg/disc (Bacillus subtilis) [mm]
1.7 (≈ 4.51 µM) | 12.5 (≈ 33.1 µM) | Brc1ccc2c(-c3c[nH]c(-c4c[nH]c5ccccc45)n3)c[nH]c2c1 [Nortopsentin C] | – | 9
7.8 (≈ 20.7 µM) | 6.2 (≈ 16.4 µM) | Brc1ccc2c(-c3nc(-c4c[nH]c5ccccc45)c[nH]3)c[nH]c2c1 [Nortopsentin B] | – | 9
7.6 (≈ 16.7 µM) | 3.1 (≈ 6.8 µM) | Brc1ccc2c(-c3c[nH]c(-c4c[nH]c5cc(Br)ccc45)n3)c[nH]c2c1 [Nortopsentin A] | – | 8
